Patent US7432365B1, “DNA molecules encoding beta clamp proteins of gram positive bacteria” (priority 1998, dated 2008)

What was measured:
[1] = biological target: Gram positive PolC (Bacillus subtilis, UniProt P13267); settings: known from the literature; cited from earlier work
[2] = system: DnaE polymerase; test: Inhibition of synthesis on SSB coated primed M13mp18 ssDNA by TMAU; format: biochemical, S. pyogenes
Procedure: (§1) To test DnaE for function with τδδ′ and β, replication reactions contained 70 ng (25 fmol) of 30-mer singly primed M13 mp18 ssDNA, 0.82 μg of S. pyogenes SSB, and 3.3 ng-300 ng of DnaE (25 fmol −2.3 pmol) in 23.5 μl of 20 mM Tris-HCl (pH 7.5), 4% glycerol, 0.1 mM EDTA, 5 mM dithiothreitol (DTT), 40 μg/ml BSA, 2 mM ATP, 8 mM MgCl2, and 60 μM each of dGTP and dCTP. When present, reactions included 43.3 ng of β and 10 ng of τδδ′. Reactions were preincubated for 3 min at 37° C., and then NaCl was added to 40 mM followed by another 2 min at 37° C. DNA synthesis was initiated upon addition of 1.5 μl of 1.5 mM dATP, 0.5 mM [α^32P]-dTTP (specific activity 2,000-4,000 cpm/pmol). Aliquots of 25 μl were removed at the indicated times and quenched with an equal volume (25 μl) of 1% SDS, 40 mM EDTA. One-half of the quenched reaction was analyzed for total deoxynucleotide incorporation using DE81 filter paper and the other half was analyzed on a 0.8% neutral agarose gel. The effect of TMAU was also examined, in which 100 μM TMAU in DMSO (2% DMSO final concentration) was present. In this case, replication was allowed to proceed for 1 min before being quenched with […] of 1% SDS, 40 mM EDTA.
(§2) Gram positive PolC is known to be inhibited by the antibiotic hydroxyphenylaza-uracil (“HPUra”) and its derivatives. In FIG. 21F, the PolC·τδδ′, β and DnaE were tested for inhibition of synthesis on SSB coated primed M13mp18 ssDNA by an HPUra derivative, trimethylanilino-uracil (“TMAU”).

[3] = biological target: T1, PolC·τδδ′, β (Streptococcus pyogenes, UniProt P0C0B7); test: as above; format: biochemical, S. pyogenes; settings: 100 μM TMAU, 2% DMSO, 1 min
T1 construct: made in house; host or cells: E. coli BL21(DE3) RecA-, pET11a (β: pET16b)
Procedure: as §1, §2

[4] = biological target: E. coli Pol III core (Escherichia coli, UniProt P10443); settings: linear polydA-oligodT template
Excerpt: DNA synthesis was quantitated using DE81 paper as described in Rowen et al., “Primase, the DnaG Protein of Escherichia coli. An Enzyme Which Starts DNA Chains,” J. Biol. Chem., 253:758-764 (1979), which is hereby incorporated by reference.

[5] = biological target: T2, S. aureus Pol III-L (Staphylococcus aureus, UniProt P0C1P9); test: PolydA-oligodT replication assay, stimulation by beta; format: biochemical; settings: linear polydA-oligodT template
T2 construct: made in house; host or cells: E. coli BL21(DE3), pET11PolC (β: pET16b)
Procedure: PolydA-oligodT was prepared as follows. […] OligodT35 was synthesized by Oligos etc.

T2 sequence (P0C1P9 whole entry): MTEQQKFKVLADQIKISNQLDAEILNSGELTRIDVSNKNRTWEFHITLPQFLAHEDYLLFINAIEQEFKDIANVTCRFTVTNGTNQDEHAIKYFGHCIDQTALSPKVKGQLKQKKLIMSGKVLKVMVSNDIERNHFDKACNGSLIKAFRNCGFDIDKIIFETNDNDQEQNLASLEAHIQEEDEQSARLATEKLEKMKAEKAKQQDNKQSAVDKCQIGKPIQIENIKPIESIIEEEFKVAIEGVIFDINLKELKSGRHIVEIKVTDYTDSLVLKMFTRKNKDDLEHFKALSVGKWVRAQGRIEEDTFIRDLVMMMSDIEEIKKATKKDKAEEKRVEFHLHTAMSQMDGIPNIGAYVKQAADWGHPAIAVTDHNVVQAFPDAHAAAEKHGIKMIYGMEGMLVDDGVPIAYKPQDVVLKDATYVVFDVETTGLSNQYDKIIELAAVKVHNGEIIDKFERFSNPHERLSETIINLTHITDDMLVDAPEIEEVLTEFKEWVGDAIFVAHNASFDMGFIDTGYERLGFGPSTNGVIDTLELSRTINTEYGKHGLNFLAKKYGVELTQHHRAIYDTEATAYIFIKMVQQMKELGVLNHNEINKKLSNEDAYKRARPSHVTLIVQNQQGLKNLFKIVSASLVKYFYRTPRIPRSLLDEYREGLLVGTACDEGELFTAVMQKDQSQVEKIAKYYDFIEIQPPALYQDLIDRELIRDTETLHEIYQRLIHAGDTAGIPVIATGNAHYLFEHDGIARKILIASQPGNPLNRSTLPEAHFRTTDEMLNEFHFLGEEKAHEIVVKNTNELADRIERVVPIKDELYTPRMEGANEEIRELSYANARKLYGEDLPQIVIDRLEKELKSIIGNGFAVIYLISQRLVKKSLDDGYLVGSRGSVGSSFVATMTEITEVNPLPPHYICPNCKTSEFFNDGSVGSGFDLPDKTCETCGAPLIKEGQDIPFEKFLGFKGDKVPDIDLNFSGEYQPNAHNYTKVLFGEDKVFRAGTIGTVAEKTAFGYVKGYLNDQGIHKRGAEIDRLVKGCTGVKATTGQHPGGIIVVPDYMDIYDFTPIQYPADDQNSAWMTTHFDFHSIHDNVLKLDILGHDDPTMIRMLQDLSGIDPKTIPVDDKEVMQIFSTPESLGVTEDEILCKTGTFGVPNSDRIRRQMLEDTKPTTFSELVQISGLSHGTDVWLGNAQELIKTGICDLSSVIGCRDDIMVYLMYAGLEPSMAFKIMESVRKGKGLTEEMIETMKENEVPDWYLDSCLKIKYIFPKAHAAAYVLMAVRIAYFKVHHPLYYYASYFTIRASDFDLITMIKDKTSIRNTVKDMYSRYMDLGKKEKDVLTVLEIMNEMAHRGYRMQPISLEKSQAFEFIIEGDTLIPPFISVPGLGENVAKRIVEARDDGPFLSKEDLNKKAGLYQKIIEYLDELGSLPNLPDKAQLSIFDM
T1 sequence (P0C0B7 whole entry D425A/L426T/C427Y/G428V/L429V/S430F): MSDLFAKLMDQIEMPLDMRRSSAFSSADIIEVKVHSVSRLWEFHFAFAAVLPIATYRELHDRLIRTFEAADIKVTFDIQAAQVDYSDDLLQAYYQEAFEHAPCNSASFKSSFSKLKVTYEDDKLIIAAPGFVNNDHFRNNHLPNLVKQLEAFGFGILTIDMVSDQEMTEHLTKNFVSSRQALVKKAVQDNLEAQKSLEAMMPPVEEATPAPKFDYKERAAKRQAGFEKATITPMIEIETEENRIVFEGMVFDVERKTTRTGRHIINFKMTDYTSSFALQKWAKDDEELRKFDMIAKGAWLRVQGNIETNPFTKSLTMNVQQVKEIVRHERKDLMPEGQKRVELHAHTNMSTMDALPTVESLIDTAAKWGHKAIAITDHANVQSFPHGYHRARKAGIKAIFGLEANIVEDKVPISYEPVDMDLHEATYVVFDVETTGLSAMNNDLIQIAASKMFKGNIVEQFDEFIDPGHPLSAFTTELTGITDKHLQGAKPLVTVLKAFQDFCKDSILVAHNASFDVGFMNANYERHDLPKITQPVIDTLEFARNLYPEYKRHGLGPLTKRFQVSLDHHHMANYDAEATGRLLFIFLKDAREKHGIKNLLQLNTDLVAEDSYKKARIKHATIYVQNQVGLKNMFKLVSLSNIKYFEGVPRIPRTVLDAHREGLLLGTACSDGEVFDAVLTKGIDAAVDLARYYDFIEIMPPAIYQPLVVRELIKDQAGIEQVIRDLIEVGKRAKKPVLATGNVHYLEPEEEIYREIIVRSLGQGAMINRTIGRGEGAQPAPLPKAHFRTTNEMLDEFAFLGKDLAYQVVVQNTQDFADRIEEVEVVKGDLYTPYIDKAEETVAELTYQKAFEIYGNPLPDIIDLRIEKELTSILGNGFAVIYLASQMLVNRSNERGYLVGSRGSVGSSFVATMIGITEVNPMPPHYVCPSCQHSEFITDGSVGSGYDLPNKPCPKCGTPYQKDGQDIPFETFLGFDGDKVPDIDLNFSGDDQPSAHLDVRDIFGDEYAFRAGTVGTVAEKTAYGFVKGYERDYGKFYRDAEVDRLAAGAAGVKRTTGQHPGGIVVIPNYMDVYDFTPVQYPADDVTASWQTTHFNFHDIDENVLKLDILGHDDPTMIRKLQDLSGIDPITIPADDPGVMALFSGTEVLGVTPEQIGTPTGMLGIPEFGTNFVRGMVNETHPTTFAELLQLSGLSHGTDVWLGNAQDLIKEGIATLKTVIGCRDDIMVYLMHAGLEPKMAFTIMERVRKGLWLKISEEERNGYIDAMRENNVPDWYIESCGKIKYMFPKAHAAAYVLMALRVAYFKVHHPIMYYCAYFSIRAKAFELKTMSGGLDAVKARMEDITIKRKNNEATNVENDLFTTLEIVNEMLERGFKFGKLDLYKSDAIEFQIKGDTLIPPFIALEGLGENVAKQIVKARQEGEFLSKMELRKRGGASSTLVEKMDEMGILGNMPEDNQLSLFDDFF
Gram positive PolC, sequence (P13267 whole entry): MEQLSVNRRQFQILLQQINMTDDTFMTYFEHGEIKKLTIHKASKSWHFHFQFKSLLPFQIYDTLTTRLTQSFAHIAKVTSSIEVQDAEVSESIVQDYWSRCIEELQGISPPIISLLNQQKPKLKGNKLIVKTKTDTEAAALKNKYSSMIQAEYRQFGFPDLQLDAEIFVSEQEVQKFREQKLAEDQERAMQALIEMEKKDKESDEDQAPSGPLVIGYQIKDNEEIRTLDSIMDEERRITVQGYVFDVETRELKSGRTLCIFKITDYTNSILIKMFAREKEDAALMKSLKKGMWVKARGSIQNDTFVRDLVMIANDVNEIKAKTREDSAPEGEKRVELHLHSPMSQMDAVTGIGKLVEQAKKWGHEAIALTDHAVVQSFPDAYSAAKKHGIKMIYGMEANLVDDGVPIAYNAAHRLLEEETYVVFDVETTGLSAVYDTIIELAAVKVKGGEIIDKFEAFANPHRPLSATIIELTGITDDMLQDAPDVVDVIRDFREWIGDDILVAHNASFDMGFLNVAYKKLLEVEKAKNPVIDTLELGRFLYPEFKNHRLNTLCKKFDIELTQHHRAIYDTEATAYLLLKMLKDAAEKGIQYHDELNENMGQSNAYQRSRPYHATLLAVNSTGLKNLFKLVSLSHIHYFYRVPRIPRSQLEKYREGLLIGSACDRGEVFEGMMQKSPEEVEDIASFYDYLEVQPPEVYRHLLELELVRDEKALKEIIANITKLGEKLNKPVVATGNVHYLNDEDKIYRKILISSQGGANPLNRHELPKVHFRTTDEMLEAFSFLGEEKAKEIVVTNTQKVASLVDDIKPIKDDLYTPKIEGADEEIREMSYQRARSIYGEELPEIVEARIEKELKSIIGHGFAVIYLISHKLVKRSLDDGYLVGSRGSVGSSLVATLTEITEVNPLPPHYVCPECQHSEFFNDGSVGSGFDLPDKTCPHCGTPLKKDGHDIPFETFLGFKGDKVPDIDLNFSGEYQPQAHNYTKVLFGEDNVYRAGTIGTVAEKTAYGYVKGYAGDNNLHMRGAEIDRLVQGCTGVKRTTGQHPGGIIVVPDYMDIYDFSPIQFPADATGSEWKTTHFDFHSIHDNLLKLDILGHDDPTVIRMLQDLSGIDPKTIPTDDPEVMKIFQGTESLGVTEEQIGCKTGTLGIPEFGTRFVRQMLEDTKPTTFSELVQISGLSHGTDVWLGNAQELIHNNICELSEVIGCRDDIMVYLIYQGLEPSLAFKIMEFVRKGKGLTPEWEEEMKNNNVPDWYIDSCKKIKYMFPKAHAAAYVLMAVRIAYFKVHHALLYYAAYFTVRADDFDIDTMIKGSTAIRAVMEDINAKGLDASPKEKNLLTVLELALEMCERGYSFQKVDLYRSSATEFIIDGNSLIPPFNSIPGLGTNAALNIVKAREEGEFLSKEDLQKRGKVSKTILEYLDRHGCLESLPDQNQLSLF

In the case of `O=c1cc(N=Nc2ccc(O)cc2)[nH]c(=O)[nH]1` [HPUra, hydroxyphenylaza-uracil], the “Inhibition of Gram positive PolC” value [1] is listed as “inhibited”.

In the case of `O=c1cc(Nc2ccc3c(c2)CCC3)[nH]c(=O)[nH]1` [TMAU, trimethylanilino-uracil], the “Inhibition of synthesis (formation of RFII product)” value (shortened to “Inhibition of synthesis”) ([2]; 100 μM TMAU, in the presence of τδδ′/β) is reported as “not affected”, the “Inhibition of synthesis” value ([2]; TMAU, in the absence of τδδ′/β (not shown)) is reported as “not affected” and the “Inhibition of synthesis” value [3] is reported as “prevented from forming the RFII product”.

B1: S. aureus beta: S. aureus beta subunit encoded by dnaN, SEQ. ID. No. 10, sliding clamp (protein)
chain: MMEFTIKRDYFITQLNDTLKAISPRTTLPILTGIKIDAKEHEVILTGSDSEISIEITIPKTVDGEDIVNISETGSVVLPGRFFVDIIKKLPGKDVKLSTNEQFQTLITSGHSEFNLSGLDPDQYPLLPQVSRDDAIQLSVKVLKNVIAQTNFAVSTSETRPVLTGVNWLIQENELICTATDSHRLAVRKLQLEDVSENKNVIIPGKALAELNKIMSDNEEDIDIFFASNQVLFKVGNVNFISRLLEGHYPDTTRLFPENYEIKLSIDNGEFYHAIDRASLLAREGGNNVIKLSTGDDVVELSSTSPEIGTVKEEVDANDVEGGSLKISFNSKYMMDALKAIDNDEVEVEFFGTMKPFILKPKGDDSVTQLILPIRTY
modifications: left off: small tags and cut ends
notes: ID; No. 10, sliding clamp
In the case of B1, the “Stimulation of polymerase DNA synthesis” value [4] is reported as “about 5 fold” and the “Stimulation of polymerase DNA synthesis” value [5] is reported as 5-6 fold.
